Test results: patent publication US8435744B2 (priority 2005, dated 2013)

Biological target: PrP^C from uninfected N2a58 cells (Mus musculus, UniProt P04925)
Assay type: cell-based, murine
Details: normal N2a58 cells, 3 days, 5 to 20 μM, before and after PK, FIG. 5

Sequence of PrP^C from uninfected N2a58 cells (P04925 23-230 limits assumed): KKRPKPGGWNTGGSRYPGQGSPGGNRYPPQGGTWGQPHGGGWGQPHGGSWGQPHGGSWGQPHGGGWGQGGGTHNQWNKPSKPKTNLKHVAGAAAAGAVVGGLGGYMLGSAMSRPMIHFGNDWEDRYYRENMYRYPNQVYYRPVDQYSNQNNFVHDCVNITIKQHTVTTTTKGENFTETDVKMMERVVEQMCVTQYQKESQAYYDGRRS

CSc1nccc(-c2ccc(Br)s2)n1 [compound A, 4-(5-bromo-2-thienyl)-2-(methylthio)pyrimidine] was tested, and the “oligomeric forms of normal PrP or bands resistant to proteinase K digestion” value was “does not make it possible to demonstrate oligomeric forms of the normal prion protein, PrP nor the appearance of bands resistant to proteinase K digestion”.
